Measured values taken from ChEMBL document CHEMBL4251625, “Efficacy of 2-hydroxy-3-phenylsulfanylmethyl-[1,4]-naphthoquinone derivatives against different Trypanosoma cruzi discrete type units: Identification of a promising hit compound” (Eur J Med Chem, 2018).

Assays:
[1] = Cytotoxicity against Swiss Webster mouse cardiomyocytes after 72 hrs; design: species or system Cardiac Muscle Cell
[2] = Cytotoxicity activity against Swiss Webster mouse primary hepatocytes assessed as reduction in cell viability after 72 hrs by cell-titer-glo assay; format: cell-based, Hepatocyte
Trypanosoma cruzi [3] = assay: Trypanocidal activity against Trypanosoma cruzi Y trypomastigotes infected in monkey LLC-MK2 cells after 24 hrs by cell-titer-glo assay; format: functional, organism-based; settings: for IC50: LLC-MK2, 24 h; for IC90: LLC-MK2, in Primates, 24 h
[4] = Therapeutic index, ratio of CC50 for African green monkey Vero cells to IC50 for Trypanosoma cruzi Dm28c intracellular amastigotes infected in African green monkey Vero cells; format: toxicity, cell-based; settings: read-out: Ratio CC50/IC50
Trypanosoma cruzi [5] = assay: Trypanocidal activity against Trypanosoma cruzi Dm28c intracellular amastigotes infected in African green monkey Vero cells after 72 hrs; format: functional, organism-based
[6] = Therapeutic index, ratio of CC50 for African green monkey Vero cells to IC50 for Trypanosoma cruzi Y trypomastigotes infected in monkey LLC-MK2 cells; format: toxicity, cell-based; settings: read-out: Ratio CC50/IC50
Trypanosoma cruzi [7] = assay: Trypanocidal activity against Trypanosoma cruzi Dm28c trypomastigotes infected in monkey LLC-MK2 cells after 24 hrs by luminescent assay; format: functional, organism-based
Trypanosoma cruzi [8] = assay: Trypanocidal activity against Trypanosoma cruzi Brazil trypomastigotes infected in monkey LLC-MK2 cells after 24 hrs by luminescent assay; format: functional, organism-based
[9] = Therapeutic index, ratio of CC50 for African green monkey Vero cells to IC50 for infected Swiss Webster mouse derived bloodstream form of Trypanosoma cruzi Y; format: toxicity; settings: read-out: Ratio CC50/IC50
Trypanosoma cruzi [10] = assay: Trypanocidal activity against Trypanosoma cruzi CL trypomastigotes infected in monkey LLC-MK2 cells after 24 hrs by luminescent assay; format: functional, organism-based; settings: CL Brener
Trypanosoma cruzi [11] = assay: Trypanocidal activity against Trypanosoma cruzi Y intracellular amastigotes infected in Swiss Webster mouse cardiomyocytes after 72 hrs; format: functional, organism-based
[12] = Therapeutic index, ratio of CC50 for Swiss Webster mouse cardiomyocytes to IC50 for Trypanosoma cruzi Y intracellular amastigotes infected in Swiss Webster mouse cardiomyocytes; format: toxicity, cell-based; settings: read-out: Ratio CC50/IC50
[13] = Cytotoxicity activity against African green monkey Vero cells assessed as reduction in cell viability after 72 hrs by cell-titer-glo assay; format: cell-based; settings: chlorocebus sabaeus
Trypanosoma cruzi [14] = assay: Trypanocidal activity against infected Swiss Webster mouse derived bloodstream form of Trypanosoma cruzi Y after 24 hrs by cell-titer-glo assay; format: functional, organism-based

SMILES | CC50 at 72 h [1] | CC50 at 72 h [2] | IC50 (Trypanosoma cruzi [3]) | IC90 (Trypanosoma cruzi [3]) | selectivity ratio [4] | IC50 (Trypanosoma cruzi [5]) | IC90 (Trypanosoma cruzi [5]) | selectivity ratio [6] | IC50 (Trypanosoma cruzi [7]; LLC-MK2, 24 h) | IC90 (Trypanosoma cruzi [7]; LLC-MK2, in Primates, 24 h) | IC50 (Trypanosoma cruzi [8]; LLC-MK2, 24 h) | IC90 (Trypanosoma cruzi [8]; LLC-MK2, in Primates, 24 h) | selectivity ratio [9] | IC50 (Trypanosoma cruzi [10]; LLC-MK2, 24 h) | IC90 (Trypanosoma cruzi [10]; LLC-MK2, in Primates, 24 h) | IC50 (Trypanosoma cruzi [11]) | selectivity ratio [12] | CC50 at 72 h [13] | IC50 (Trypanosoma cruzi [14]) | IC90 (Trypanosoma cruzi [14])
O=C(Cn1ccnc1[N+](=O)[O-])NCc1ccccc1 [BENZNIDAZOLE] | > 500 µM | > 500 µM | 29.8 µM | 68.5 µM | 83.2 | 4.39 µM | 24.9 µM | 12.2 | 24.7 µM | 92.3 µM | 93.3 µM | > 100 µM | 20.2 | 69.3 µM | > 100 µM | 1.1 µM | > 455 | 366 µM | 18.1 µM | > 100 µM
O=C1C=C(O)C(=O)c2ccccc21 [LAWSONE] | – | > 500 µM | > 100 µM | > 100 µM | 2.39 | 89 µM | > 100 µM | – | – | – | – | – | – | – | – | – | – | 214 µM | > 100 µM | > 100 µM
